Experiments:
Experiment in all cases: Herbicidal effect by foliage and soil treatment
Format in all cases: in vivo
Settings in all cases: 10 g ai/10a, evaluated after 14 days
[1] = tested on: black nightshade (Solanum nigrum)
From the text: (§1) Experiment for Determination of Herbicidal Effect by Foliate and Soil Treatment Seeds of redroot pigweed (Amaranthus retroflexus), common blackjack (Bidens pilosa), kediock (Sinapis arvensis), common chickweed (Stellaria media), sicklepod (Cassia obtusifolia), black nightshade (Solanum nigrum), velvetleaf (Abutilon theophrasti), field bindweed (Convolvulus arvensis), wild chamomile (Matricaria chamomilla), cleavers (Galium aparine) and […] (Veronica hederaefolia), were uniformly sowed over a horticultural granular soil (produced by KUREHA CHEMICAL INDUSTRY, CO., LTD.; the same soil was used hereinafter) filled in a planter. The planter was placed in a greenhouse (maintained at 19 to 25° C.) to sprout these plants. Two seedlings of each sprouted plant were transplanted to a 10 cm-diameter pot filled with the horticultural granular soil and cultivated in the greenhouse (maintained at 19 to 25° C.) until reaching a cotyledonal to bifoliate period suited to the foliage and soil treatment. […] Next, additional amounts of Tween 20 and water were added to the obtained solution or suspension to produce a test solution. The plants prepared in the above (1) were placed within a frame having a predetermined inside area, and uniformly sprayed with the test solution using a sprayer such that the amount of each compound applied was controlled to a predetermined level. The plants sprayed with the test solution were placed again in the greenhouse (maintained at 19 to 25° C.) and cultivated therein. After 14 days, the degree of growth of each plant cultivated in the treated region was compared with that of plant cultivated in non-treated region, and evaluated according to the following ratings. The herbicidal activity of each test compound was represented by these ratings

[2] = tested on: cleavers (Galium aparine)
From the text: as §1

[3] = tested on: common blackjack (Bidens pilosa)
From the text: as §1

[4] = tested on: common chickweed (Stellaria media)
From the text: as §1

[5] = tested on: field bindweed (Convolvulus arvensis)
From the text: as §1

[6] = tested on: ivyleafspeedwell (Veronica hederaefolia)
From the text: as §1

[7] = tested on: kediock (Sinapis arvensis)
From the text: as §1

[8] = tested on: redroot pigweed (Amaranthus retroflexus)
From the text: as §1

[9] = tested on: sicklepod (Cassia obtusifolia)
From the text: as §1

[10] = tested on: velvetleaf (Abutilon theophrasti)
From the text: as §1

[11] = tested on: wild chamomile (Matricaria chamomilla)
From the text: as §1

## COc1cc(Oc2cccc(C(F)(F)F)c2)nc(C(=O)N(C)OC)c1 [Compound I-203]
[1]
  herbicidal activity rating, SN (Solanum nigrum): 5 (percentage of weeds killed was not less than 80%)
[2]
  herbicidal activity rating, GA (Galium aparine): 5 (percentage of weeds killed was not less than 80%)
[3]
  herbicidal activity rating, BP (Bidens pilosa): 3 (percentage of weeds killed was not less than 40% and less than 60%)
[4]
  herbicidal activity rating, SM (Stellaria media): 4 (percentage of weeds killed was not less than 60% and less than 80%)
[5]
  herbicidal activity rating, CA (Convolvulus arvensis): 4 (percentage of weeds killed was not less than 60% and less than 80%)
[6]
  herbicidal activity rating, VH (Veronica hederaefolia): 5 (percentage of weeds killed was not less than 80%)
[7]
  herbicidal activity rating, SA (Sinapis arvensis): 5 (percentage of weeds killed was not less than 80%)
[8]
  herbicidal activity rating, AR (Amaranthus retroflexus): 5 (percentage of weeds killed was not less than 80%)
[9]
  herbicidal activity rating, CO (Cassia obtusifolia): 5 (percentage of weeds killed was not less than 80%)
[10]
  herbicidal activity rating, AT (Abutilon theophrasti): 4 (percentage of weeds killed was not less than 60% and less than 80%)
[11]
  herbicidal activity rating, MC (Matricaria chamomilla): 2 (percentage of weeds killed was not less than 20% and less than 40%)

## CCCNC(=S)c1cccc(Oc2cccc(C(F)(F)F)c2)n1 [control (c)]
[1]
  herbicidal activity rating, SN (Solanum nigrum): 4 (percentage of weeds killed was not less than 60% and less than 80%)
[2]
  herbicidal activity rating, GA (Galium aparine): 4 (percentage of weeds killed was not less than 60% and less than 80%)
[3]
  herbicidal activity rating, BP (Bidens pilosa): 1 (percentage of weeds killed was less than 20%)
[4]
  herbicidal activity rating, SM (Stellaria media): 3 (percentage of weeds killed was not less than 40% and less than 60%)
[5]
  herbicidal activity rating, CA (Convolvulus arvensis): 2 (percentage of weeds killed was not less than 20% and less than 40%)
[6]
  herbicidal activity rating, VH (Veronica hederaefolia): 5 (percentage of weeds killed was not less than 80%)
[7]
  herbicidal activity rating, SA (Sinapis arvensis): 5 (percentage of weeds killed was not less than 80%)
[8]
  herbicidal activity rating, AR (Amaranthus retroflexus): 5 (percentage of weeds killed was not less than 80%)
[9]
  herbicidal activity rating, CO (Cassia obtusifolia): 2 (percentage of weeds killed was not less than 20% and less than 40%)
[10]
  herbicidal activity rating, AT (Abutilon theophrasti): 3 (percentage of weeds killed was not less than 40% and less than 60%)
[11]
  herbicidal activity rating, MC (Matricaria chamomilla): 1 (percentage of weeds killed was less than 20%)

## COCCNC(=O)c1cc(OC)cc(Oc2cccc(C(F)(F)F)c2)n1 [Compound I-61]
[1]
  herbicidal activity rating, SN (Solanum nigrum): 5 (percentage of weeds killed was not less than 80%)
[2]
  herbicidal activity rating, GA (Galium aparine): 5 (percentage of weeds killed was not less than 80%)
[3]
  herbicidal activity rating, BP (Bidens pilosa): 2 (percentage of weeds killed was not less than 20% and less than 40%)
[4]
  herbicidal activity rating, SM (Stellaria media): 5 (percentage of weeds killed was not less than 80%)
[5]
  herbicidal activity rating, CA (Convolvulus arvensis): 3 (percentage of weeds killed was not less than 40% and less than 60%)
[6]
  herbicidal activity rating, VH (Veronica hederaefolia): 5 (percentage of weeds killed was not less than 80%)
[7]
  herbicidal activity rating, SA (Sinapis arvensis): 5 (percentage of weeds killed was not less than 80%)
[8]
  herbicidal activity rating, AR (Amaranthus retroflexus): 5 (percentage of weeds killed was not less than 80%)
[9]
  herbicidal activity rating, CO (Cassia obtusifolia): 5 (percentage of weeds killed was not less than 80%)
[10]
  herbicidal activity rating, AT (Abutilon theophrasti): 4 (percentage of weeds killed was not less than 60% and less than 80%)
[11]
  herbicidal activity rating, MC (Matricaria chamomilla): 5 (percentage of weeds killed was not less than 80%)

## CONC(=O)c1cc(OC)cc(Oc2cccc(C(F)(F)F)c2)n1 [Compound I-97, N-methoxy-4-methoxy-6-{3-(trifluoromethyl)phenoxy}-2-pyridine carboxamide]
[1]
  herbicidal activity rating, SN (Solanum nigrum): 5 (percentage of weeds killed was not less than 80%)
[2]
  herbicidal activity rating, GA (Galium aparine): 5 (percentage of weeds killed was not less than 80%)
[3]
  herbicidal activity rating, BP (Bidens pilosa): 5 (percentage of weeds killed was not less than 80%)
[4]
  herbicidal activity rating, SM (Stellaria media): 5 (percentage of weeds killed was not less than 80%)
[5]
  herbicidal activity rating, CA (Convolvulus arvensis): 4 (percentage of weeds killed was not less than 60% and less than 80%)
[6]
  herbicidal activity rating, VH (Veronica hederaefolia): 5 (percentage of weeds killed was not less than 80%)
[7]
  herbicidal activity rating, SA (Sinapis arvensis): 5 (percentage of weeds killed was not less than 80%)
[8]
  herbicidal activity rating, AR (Amaranthus retroflexus): 5 (percentage of weeds killed was not less than 80%)
[9]
  herbicidal activity rating, CO (Cassia obtusifolia): 5 (percentage of weeds killed was not less than 80%)
[10]
  herbicidal activity rating, AT (Abutilon theophrasti): 5 (percentage of weeds killed was not less than 80%)
[11]
  herbicidal activity rating, MC (Matricaria chamomilla): 5 (percentage of weeds killed was not less than 80%)

## CCCCNC(=O)c1cc(OC)cc(Oc2cccc(C(F)(F)F)c2)n1 [Compound I-36]
[1]
  herbicidal activity rating, SN (Solanum nigrum): 5 (percentage of weeds killed was not less than 80%)
[2]
  herbicidal activity rating, GA (Galium aparine): 5 (percentage of weeds killed was not less than 80%)
[3]
  herbicidal activity rating, BP (Bidens pilosa): 5 (percentage of weeds killed was not less than 80%)
[4]
  herbicidal activity rating, SM (Stellaria media): 5 (percentage of weeds killed was not less than 80%)
[5]
  herbicidal activity rating, CA (Convolvulus arvensis): 5 (percentage of weeds killed was not less than 80%)
[6]
  herbicidal activity rating, VH (Veronica hederaefolia): 5 (percentage of weeds killed was not less than 80%)
[7]
  herbicidal activity rating, SA (Sinapis arvensis): 5 (percentage of weeds killed was not less than 80%)
[8]
  herbicidal activity rating, AR (Amaranthus retroflexus): 5 (percentage of weeds killed was not less than 80%)
[9]
  herbicidal activity rating, CO (Cassia obtusifolia): 5 (percentage of weeds killed was not less than 80%)
[10]
  herbicidal activity rating, AT (Abutilon theophrasti): 4 (percentage of weeds killed was not less than 60% and less than 80%)
[11]
  herbicidal activity rating, MC (Matricaria chamomilla): 5 (percentage of weeds killed was not less than 80%)

## CCCONC(=O)c1cc(OC)cc(Oc2cccc(C(F)(F)F)c2)n1 [Compound I-99, N-(n-propoxy)-4-methoxy-6-{3-(trifluoromethyl)phenoxy}-2-pyridine carboxamide]
[1]
  herbicidal activity rating, SN (Solanum nigrum): 5 (percentage of weeds killed was not less than 80%)
[2]
  herbicidal activity rating, GA (Galium aparine): 5 (percentage of weeds killed was not less than 80%)
[3]
  herbicidal activity rating, BP (Bidens pilosa): 5 (percentage of weeds killed was not less than 80%)
[4]
  herbicidal activity rating, SM (Stellaria media): 5 (percentage of weeds killed was not less than 80%)
[5]
  herbicidal activity rating, CA (Convolvulus arvensis): 5 (percentage of weeds killed was not less than 80%)
[6]
  herbicidal activity rating, VH (Veronica hederaefolia): 5 (percentage of weeds killed was not less than 80%)
[7]
  herbicidal activity rating, SA (Sinapis arvensis): 5 (percentage of weeds killed was not less than 80%)
[8]
  herbicidal activity rating, AR (Amaranthus retroflexus): 5 (percentage of weeds killed was not less than 80%)
[9]
  herbicidal activity rating, CO (Cassia obtusifolia): 5 (percentage of weeds killed was not less than 80%)
[10]
  herbicidal activity rating, AT (Abutilon theophrasti): 5 (percentage of weeds killed was not less than 80%)
[11]
  herbicidal activity rating, MC (Matricaria chamomilla): 4 (percentage of weeds killed was not less than 60% and less than 80%)

## CCN(C)C(=O)c1cc(OC)cc(Oc2cccc(C(F)(F)F)c2)n1 [Compound I-201]
[1]
  herbicidal activity rating, SN (Solanum nigrum): 5 (percentage of weeds killed was not less than 80%)
[2]
  herbicidal activity rating, GA (Galium aparine): 5 (percentage of weeds killed was not less than 80%)
[3]
  herbicidal activity rating, BP (Bidens pilosa): 2 (percentage of weeds killed was not less than 20% and less than 40%)
[4]
  herbicidal activity rating, SM (Stellaria media): 5 (percentage of weeds killed was not less than 80%)
[5]
  herbicidal activity rating, CA (Convolvulus arvensis): 5 (percentage of weeds killed was not less than 80%)
[6]
  herbicidal activity rating, VH (Veronica hederaefolia): 5 (percentage of weeds killed was not less than 80%)
[7]
  herbicidal activity rating, SA (Sinapis arvensis): 5 (percentage of weeds killed was not less than 80%)
[8]
  herbicidal activity rating, AR (Amaranthus retroflexus): 5 (percentage of weeds killed was not less than 80%)
[9]
  herbicidal activity rating, CO (Cassia obtusifolia): 5 (percentage of weeds killed was not less than 80%)
[10]
  herbicidal activity rating, AT (Abutilon theophrasti): 4 (percentage of weeds killed was not less than 60% and less than 80%)
[11]
  herbicidal activity rating, MC (Matricaria chamomilla): 2 (percentage of weeds killed was not less than 20% and less than 40%)
